Measured values taken from patent US11242337B2, “Compounds useful for treating gastrointestinal tract disorders” (Ardelyx, Inc., priority 2017, dated 2022).

Biological target: T1, NHE3 (Homo sapiens, UniProt P48764)
T1 construct: expressed in transfected cells
T1 sequence (P48764 26-834): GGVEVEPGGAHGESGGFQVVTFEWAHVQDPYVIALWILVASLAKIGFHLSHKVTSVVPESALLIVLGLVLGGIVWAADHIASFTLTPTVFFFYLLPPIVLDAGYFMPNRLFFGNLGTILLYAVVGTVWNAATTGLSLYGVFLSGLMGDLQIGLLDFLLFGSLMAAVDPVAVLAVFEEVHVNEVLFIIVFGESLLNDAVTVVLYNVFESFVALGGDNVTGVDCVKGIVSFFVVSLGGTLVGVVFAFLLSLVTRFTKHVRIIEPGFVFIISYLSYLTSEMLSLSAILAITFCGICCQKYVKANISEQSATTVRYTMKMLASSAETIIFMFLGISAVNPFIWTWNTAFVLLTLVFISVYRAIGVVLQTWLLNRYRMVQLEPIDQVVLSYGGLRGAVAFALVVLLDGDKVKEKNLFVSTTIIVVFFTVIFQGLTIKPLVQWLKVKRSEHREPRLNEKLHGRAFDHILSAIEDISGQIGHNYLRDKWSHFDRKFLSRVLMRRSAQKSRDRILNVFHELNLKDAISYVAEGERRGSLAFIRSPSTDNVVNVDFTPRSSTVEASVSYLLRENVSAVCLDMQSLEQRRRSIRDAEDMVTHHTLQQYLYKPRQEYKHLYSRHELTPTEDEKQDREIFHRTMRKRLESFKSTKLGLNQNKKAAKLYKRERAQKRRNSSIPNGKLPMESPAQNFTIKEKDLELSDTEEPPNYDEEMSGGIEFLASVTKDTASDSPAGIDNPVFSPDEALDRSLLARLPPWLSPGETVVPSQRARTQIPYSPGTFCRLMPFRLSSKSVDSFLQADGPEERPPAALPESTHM
T1 sequence (Q99653 2-195 partner limits assumed): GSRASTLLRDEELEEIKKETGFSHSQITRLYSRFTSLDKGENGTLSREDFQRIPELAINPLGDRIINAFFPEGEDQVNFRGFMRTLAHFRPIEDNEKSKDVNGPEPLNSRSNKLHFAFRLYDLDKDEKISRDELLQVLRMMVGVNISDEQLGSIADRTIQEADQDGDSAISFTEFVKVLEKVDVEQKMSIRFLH
Test: Cell-based assay of NHE-3 activity (persistent inhibition), human
Settings: human Persistence, 60 min incubation then washout
Method in brief: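 PS120 fibroblasts expressing human NHE3 with NHERF2 exposed to 0-30 μM compound for 60 min at RT, then washed out; cells acid-loaded by NH4Cl prepulse with BCECF-AM and Na+-free buffer. Na+-driven pH recovery started 10 min post-washout; initial rate of BCECF ratio change (FLIPR) taken as activity.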

Compound | % inhibition | pIC50 | IC50
Cc1cc(S(=O)(=O)N[C@H]2CCN(CCOCCNC(=O)NCCCCNC(=O)NCCOCCN3CC[C@H](NS(=O)(=O)c4ccc(O[C@H]5c6cc(Cl)cc(Cl)c6C[C@@H]5N(C)C)c(C)c4)C3=O)C2=O)ccc1O[C@H]1c2cc(Cl)cc(Cl)c2C[C@@H]1N(C)C [Example 91, 1-(2-[2-[(3S)-3-[(4-[[(1S,2S)-4,6-Dichloro-2-(dimethylamino)-2,3-dihydro-1H-inden-1-yl]oxy]-3-methylbenzene)sulfonamido]-2-oxopyrrolidin-1-yl]ethoxy]ethyl)-3-(4-[[(2-[2-[(3S)-3-[(4-[[(1S,2S)-4,6-dichloro-2-(dimethylamino)-2,3-dihydro-1H-inden-1-yl]oxy]-3-methylbenzene)sulfonamido]-2-oxopyrrolidin-1-yl]ethoxy]ethyl)carbamoyl]amino]butyl)urea] | C (>70%) | C (NHE3 pIC50 > 7) | –
O=C(NCCCCNC(=O)NCCOCCN1CC[C@@H](NS(=O)(=O)c2ccc(O[C@H]3c4cc(Cl)cc(Cl)c4C[C@@H]3N3CCNCC3)c(F)c2)C1)NCCOCCN1CC[C@@H](NS(=O)(=O)c2ccc(O[C@H]3c4cc(Cl)cc(Cl)c4C[C@@H]3N3CCNCC3)c(F)c2)C1 [Example 105, 4-([(1S,2S)-4,6-Dichloro-2-(piperazin-1-yl)-2,3-dihydro-1H-inden-1-yl]oxy)-N—[(R)-1-(20-[(R)-3-([4-([(1S2S)-4,6-dichloro-2-(piperazin-1-yl)-2,3-dihydro-1H-inden-1-yl]oxy)-3-fluorophenyl]sulfonamido)pyrrolidin-1-yl]-7,14-dioxo-3,18-dioxa-6,8,13,15-tetraazaicosyl)pyrrolidin-3-yl]-3-fluorobenzenesulfonamide; tetra(trifluoroacetate)] | C (>70%) | – | < 100 nM
O=C(NCCCCNC(=O)NCCOCCN1CC[C@H](NS(=O)(=O)c2ccc(O[C@H]3c4cc(Cl)cc(Cl)c4C[C@@H]3N3CCNCC3)c(F)c2)C1)NCCOCCN1CC[C@H](NS(=O)(=O)c2ccc(O[C@H]3c4cc(Cl)cc(Cl)c4C[C@@H]3N3CCNCC3)c(F)c2)C1 [Example 106, 4-([(1S,2S)-4,6-Dichloro-2-(piperazin-1-yl)-2,3-dihydro-1H-inden-1-yl]oxy)-N—[(S)-1-(20-[(S)-3-([4-([(1S,2S)-4,6-dichloro-2-(piperazin-1-yl)-2,3-dihydro-1H-inden-1-yl]oxy)-3-fluorophenyl]sulfonamido)pyrrolidin-1-yl]-7,14-dioxo-3,18-dioxa-6,8,13,15-tetraazaicosyl)pyrrolidin-3-yl]-3-fluorobenzenesulfonamide; tetra(trifluoroacetate)] | C (>70%) | – | –
N#Cc1cc(Cl)cc2c1C[C@H](N1CCNCC1)[C@H]2Oc1ccc(S(=O)(=O)N[C@H]2CCN(CCOCCNC(=O)NCCCCNC(=O)NCCOCCN3CC[C@H](NS(=O)(=O)c4ccc(O[C@H]5c6cc(Cl)cc(C#N)c6C[C@@H]5N5CCNCC5)cc4)C3)C2)cc1 [Example 107, 4-([(1S,2S)-6-Chloro-4-cyano-2-(piperazin-1-yl)-2,3-dihydro-1H-inden-1-yl]oxy)-N—[(S)-1-(20-[(S)-3-([4-([(1S,2S)-6-chloro-4-cyano-2-(piperazin-1-yl)-2,3-dihydro-1H-inden-1-yl]oxy)phenyl]sulfonamido)pyrrolidin-1-yl]-7,14-dioxo-3,18-dioxa-6,8,13,15-tetraazaicosyl)pyrrolidin-3-yl]benzenesulfonamide; tetra(trifluoroacetate)] | C (>70%) | C (NHE3 pIC50 > 7) | –
N#Cc1cc(Cl)cc2c1C[C@H](N1CCNCC1)[C@H]2Oc1ccc(S(=O)(=O)N[C@@H]2CCN(CCOCCNC(=O)NCCCCNC(=O)NCCOCCN3CC[C@@H](NS(=O)(=O)c4ccc(O[C@H]5c6cc(Cl)cc(C#N)c6C[C@@H]5N5CCNCC5)c(F)c4)C3)C2)cc1F [Example 109, 4-([(1S,2S)-6-Chloro-4-cyano-2-(piperazin-1-yl)-2,3-dihydro-1H-inden-1-yl]oxy)-N—[(R)-1-(20-[(R)-3-[(4-([(1S,2S)-6-chloro-4-cyano-2-(piperazin-1-yl)-2,3-dihydro-1H-inden-1-yl]oxy)-3-fluorophenyl)sulfonamide)pyrrolidin-1-yl]-7,14-dioxo-3,18-dioxa-6,8,13,15-tetraazaicosyl)pyrrolidin-3-yl]-3-fluorobenzenesulfonamide; tetra(trifluoroacetate)] | C (>70%) | C (NHE3 pIC50 > 7) | –
N#Cc1cc(Cl)cc2c1C[C@H](N1CCNCC1)[C@H]2Oc1ccc(S(=O)(=O)N[C@H]2CCN(CCOCCNC(=O)NCCCCNC(=O)NCCOCCN3CC[C@H](NS(=O)(=O)c4ccc(O[C@H]5c6cc(Cl)cc(C#N)c6C[C@@H]5N5CCNCC5)c(F)c4)C3)C2)cc1F [Example 110, 4-([(1S,2S)-6-Chloro-4-cyano-2-(piperazin-1-yl)-2,3-dihydro-1H-inden-1-yl]oxy)-N—[(S)-1-(20-[(S)-3-[(4-([(1S,2S)-6-chloro-4-cyano-2-(piperazin-1-yl)-2,3-dihydro-1H-inden-1-yl]oxy)-3-fluorophenyl)sulfonamide)pyrrolidin-1-yl]-7,14-dioxo-3,18-dioxa-6,8,13,15-tetraazaicosyl)pyrrolidin-3-yl]-3-fluorobenzenesulfonamide; tetra(trifluoroacetate)] | C (>70%) | C (NHE3 pIC50 > 7) | –
N#Cc1cc(Cl)cc2c1C[C@H](N1CCNCC1)[C@H]2Oc1ccc(S(=O)(=O)NC2CCN(C(=O)CCCNC(=O)NCCCCNC(=O)NCCCC(=O)N3CCC(NS(=O)(=O)c4ccc(O[C@H]5c6cc(Cl)cc(C#N)c6C[C@@H]5N5CCNCC5)cc4)CC3)CC2)cc1 [Example 115] | C (>70%) | C (NHE3 pIC50 > 7) | –
N#Cc1cc(Cl)cc2c1C[C@H](N1CCNCC1)[C@H]2Oc1ccc(S(=O)(=O)N2CCC(NC(=O)CCCNC(=O)NCCCCNC(=O)NCCCC(=O)NC3CCN(S(=O)(=O)c4ccc(O[C@H]5c6cc(Cl)cc(C#N)c6C[C@@H]5N5CCNCC5)cc4)CC3)CC2)cc1 [Example 120, N^1,N^18-Bis(1-([4-([(1S,2S)-6-chloro-4-cyano-2-(piperazin-1-yl)-2,3-dihydro-1H-inden-1-yl]oxy)phenyl]sulfonyl)piperidin-4-yl)-6,13-dioxo-5,7,12,14-tetraazaoctadecanediamide] | C (>70%) | C (NHE3 pIC50 > 7) | –
CN(C)[C@H]1CCCN([C@H]2Cc3c(C#N)cc(Cl)cc3[C@@H]2Oc2ccc(S(=O)(=O)NCCOCCOCCNC(=O)NCCCCNC(=O)NCCOCCOCCNS(=O)(=O)c3ccc(O[C@H]4c5cc(Cl)cc(C#N)c5C[C@@H]4N4CCC[C@H](N(C)C)C4)cc3)cc2)C1 [Example 122, 4-([(1S,2S)-6-Chloro-4-cyano-2-[(S)-3-(dimethylamino)piperidin-1-yl]-2,3-dihydro-1H-inden-1-yl]oxy)-N-[26-([4-([(1S,2S)-6-chloro-4-cyano-2-[(S)-3-(dimethylamino)piperidin-1-yl]-2,3-dihydro-1H-inden-1-yl]oxy)phenyl]sulfonamido)-10,17-dioxo-3,6,21,24-tetraoxa-9,11,16,18-tetraazahexacosyl]benzenesulfonamide] | C (>70%) | C (NHE3 pIC50 > 7) | –
N#Cc1cc(Cl)cc2c1C[C@H](N1CCNCC1)[C@H]2Oc1ccc(S(=O)(=O)NC2CCN(CCOCCNC(=O)NCCCCNC(=O)NCCOCCN3CCC(NS(=O)(=O)c4ccc(O[C@H]5c6cc(Cl)cc(C#N)c6C[C@@H]5N5CCNCC5)cc4)CC3)CC2)cc1 [Example 123, 4-([(1S,2S)-6-Chloro-4-cyano-2-(piperazin-1-yl)-2,3-dihydro-1H-inden-1-yl]oxy)-N-[1-(20-[4-([4-([(1S,2S)-6-chloro-4-cyano-2-(piperazin-1-yl)-2,3-dihydro-1H-inden-1-yl]oxy)phenyl]sulfonamide]piperidin-1-yl)-7,14-dioxo-3,18-dioxa-6,8,13,15-tetraazaicosyl]piperidin-4-yl)benzenesulfonamide] | C (>70%) | C (NHE3 pIC50 > 7) | –
